From patent US5036062A, “Novel esters” (Pharmacia AB, priority 1988, dated 1991)
Counter-ions that a name gives are not always drawn.

Key:
[1] = Oral bioavailability of estramustine in dogs (AUC of estramustine after oral dosing); format: in vivo, Beagle dogs; conditions: oral water solution, dose equivalent to 140 mg estramustine phosphate, fasting; for AUC of estramustine, Mean ± S.D.: four Beagle dogs
Experimental: Different formulations were administered orally to groups of four Beagle dogs. The dose was equivalent to 140 mg of estramustine phosphate. The animals were fasting before dosing and given 50 ml 0.01 M hydrochloric acid after the dose. Blood samples were analysed for estramustine by means of gas chromatography. (Andersson, S-B, et al., Acta Pharm.Suec. 19, 1 (1982).
The following formulations were used: […]
1. Water solution of estramustine phosphate disodium salt
2. Water solution of compound No. 6:2
3. Water solution of compound No. 4:2

[2] = Interactions with calcium ions (observation of precipitate in acetate buffer pH=4.5 after adding equimolar calcium ions); format: physicochemical; conditions: for Observation: pH=4.5 buffer, observed for 3 h
Experimental: Solution A: 0.3 mole/l calcium diethanesulfonate. Calcium carbonate ([…], 15 mmole) is dissolved by adding a 1.0 mole/l ethanesulfonic acid solution until a stable pH=5.3 is obtained. The solution is diluted with water to 50 ml.
Solution B: 0.03 mole/l calcium diethanesulfonate. One part of solution A is diluted with 9 parts of water.
Solution C: 0.05 mole/l sodium acetate/acetic acid buffer with pH=4.5. Glacial acetic acid (3.0 g, 0.05 mole) is dissolved in 800 ml of water, titrated with 1 mole/l sodium hydroxide solution to pH=4.5 and diluted to 1 l.
The test compound is dissolved in 50 ml of solution C. A clear solution is obtained in a few minutes. After 5 minutes an equimolar amount of calcium ions are added by adding 1 ml of solution A or B. The mixture is observed for 3 h.

SMILES: CNCC(=O)O[C@H]1CC[C@H]2[C@@H]3CCc4cc(OC(=O)N(CCCl)CCCl)ccc4[C@H]3CC[C@]12C [Compound No. 4:2, 17-Estramustine N-methylaminoacetate, ethanesulfonate]
- AUC of estramustine ([1]; Dog No. 8729): 94.0 ng/mlxhours
- AUC of estramustine ([1]; Dog No. 8731): 79.8 ng/mlxhours
- AUC of estramustine ([1]; Dog No. 8735): 2.6 ng/mlxhours
- AUC of estramustine ([1]; Dog No. 8742): 153.4 ng/mlxhours
- AUC of estramustine, Mean ± S.D. [1]: 82.6 ± 62.0 ng/mlxhours

SMILES: C[C@]12CC[C@@H]3c4ccc(OC(=O)N(CCCl)CCCl)cc4CC[C@H]3[C@@H]1CC[C@@H]2OC(=O)CN [Compound No. 6:2, 17-estramustine aminoacetate, methanesulfonate]
- Observation ([2]; 178 mg, 0.3 mmole compound, solution A, 0.3 mmole calcium ions): Remains clear
- AUC of estramustine ([1]; Dog No. 8727): 100 ng/mlxhours
- AUC of estramustine ([1]; Dog No. 8729): 140 ng/mlxhours
- AUC of estramustine ([1]; Dog No. 8731): 45.8 ng/mlxhours
- AUC of estramustine ([1]; Dog No. 8733): 184.8 ng/mlxhours
- AUC of estramustine, Mean ± S.D. [1]: 118 ± 59 ng/mlxhours

SMILES: C[C@]12CC[C@@H]3c4ccc(OC(=O)N(CCCl)CCCl)cc4CC[C@H]3[C@@H]1CC[C@@H]2OP(=O)(O)O [Estramustine phosphate disodium salt, 17-estramustine dihydrogen phosphate ester, reference compound]
- Observation ([2]; 16 mg, 0.03 mmole compound, solution B, 0.03 mmole calcium ions): Becomes unclear
- precipitate in the presence of calcium ions (summary) ([2]; novel compounds at concentrations 10 times higher than those of estramustine phosphate disodium salt and calcium ions giving immediate undissolved calcium salt): immediate formation of an undissolved estramustine phosphate calcium salt
- AUC of estramustine ([1]; Dog No. 8727): 147 ng/mlxhours
- AUC of estramustine ([1]; Dog No. 8729): 16.4 ng/mlxhours
- AUC of estramustine ([1]; Dog No. 8731): 34.0 ng/mlxhours
- AUC of estramustine ([1]; Dog No. 8733): 19.5 ng/mlxhours
- AUC of estramustine, Mean ± S.D. ([1]; listed as Etramustine phosphate disodium salt): 54.3 ± 62.4 ng/mlxhours
